Values joined by “and” are separate entries in the source; they are usually repeats but may differ in a detail not shown here. Identical values can stand only once.
Columns and labels:
HEK293T cells [1] = assay: Cytotoxicity: necrosis induction (red fluorescent dye for permeable plasma membranes); assay type: cell-based; details: 1 µM, 24 h, necrotic cell count normalized to 0.1% DMSO, single replicates;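 note: compounds applied in DMEM high glucose with 0.1% FCS and 0.1% DMSO, necrotic HEK293T cells counted by red staining of cells whose plasma membranes had become permeable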
ABL1 = target: T1, ABL1 (Homo sapiens, UniProt P00519); assay: Liability panel screening by DSF: ABL1; assay type: binding; details: DSF, 20 µM, n=2; read-out: Mean ΔTM ABL1
T1 construct: made in house
Procedure: (§1) Reference ligands are listed in the methods section.
(§2) In-house produced recombinantly expressed proteins[62] of the liability panel targets were diluted in a buffer containing 10 mM HEPES (pH 7.5) and 500 mM NaCl to a concentration of 2 µM. SYPRO Orange (Invitrogen, Carlsbad, California, USA; #S6650) as a fluorescence probe was added at a 1:1000 dilution to the proteins. […] Temperature-dependent unfolding profiles were measured on a QuantStudio™ 5 real-time PCR machine (Thermo Fisher Scientific, Waltham, Massachusetts, USA; #A28140). […] The temperature was increased 3 °C per minute to a maximum temperature of 85 °C. Experiments were run as technical duplicates. […] Data were analyzed with the internal Thermal Shift Software (version 1.4, Thermo Fisher Scientific) using the Boltzmann equitation to determine the inflection point of the transition curve. Differences in melting temperature are given as ∆Tm in K. […]
(§3) scanning fluorimetry (DSF).
(§4) a concentration of 20 µM.

AURKA = target: T2, AURKA (Homo sapiens, UniProt O14965); assay: Liability panel screening by DSF: AURKA; assay type: binding; details: DSF, 20 µM, n=2; read-out: Mean ΔTM AURKA
T2 construct: made in house
T2 sequence (O14965 1-403): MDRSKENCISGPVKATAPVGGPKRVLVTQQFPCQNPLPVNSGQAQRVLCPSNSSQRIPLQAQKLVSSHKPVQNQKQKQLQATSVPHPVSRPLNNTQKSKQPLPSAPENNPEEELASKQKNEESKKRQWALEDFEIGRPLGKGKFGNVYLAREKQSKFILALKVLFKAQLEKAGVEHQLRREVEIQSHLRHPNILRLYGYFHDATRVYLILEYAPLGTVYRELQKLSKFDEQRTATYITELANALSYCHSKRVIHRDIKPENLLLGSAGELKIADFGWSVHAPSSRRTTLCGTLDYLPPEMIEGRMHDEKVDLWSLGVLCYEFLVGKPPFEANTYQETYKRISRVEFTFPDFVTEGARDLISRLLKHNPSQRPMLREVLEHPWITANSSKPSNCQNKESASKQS
Procedure: as §1, §2, §3, §4

CDK2 = target: T3, CDK2 (Homo sapiens, UniProt P24941); assay: Liability panel screening by DSF: CDK2; assay type: binding; details: DSF, 20 µM, n=2; read-out: Mean ΔTM CDK2
T3 construct: made in house
Procedure: as §1, §2, §3, §4

FGFR3 = target: T4, FGFR3 (Homo sapiens, UniProt P22607); assay: Liability panel screening by DSF: FGFR3; assay type: binding; details: DSF, 20 µM, n=2; read-out: Mean ΔTM FGFR3
T4 construct: made in house
Procedure: as §1, §2, §3, §4

GSK3B = target: T5, GSK3B (Homo sapiens, UniProt P49841); assay: Liability panel screening by DSF: GSK3B; assay type: binding; details: DSF, 20 µM, n=2; read-out: Mean ΔTM GSK3B
T5 construct: made in house

BRD4 = target: T6, BRD4 (Homo sapiens, UniProt O60885); assay: Liability panel screening by DSF: BRD4; assay type: binding; details: DSF, 20 µM, n=2; read-out: Mean ΔTM BRD4
T6 construct: This panel comprised ten highly ligandable kinases and bromodomains; made in house
Procedure: as §1, §2, §3, §4

BRPF1 = target: T7, BRPF1 (Homo sapiens, UniProt P55201); assay: Liability panel screening by DSF: BRPF1; assay type: binding; details: DSF, 20 µM, n=2; read-out: Mean ΔTM BRPF1
T7 construct: This panel comprised ten highly ligandable kinases and bromodomains; made in house
T7 sequence (P55201 628-732 limits assumed): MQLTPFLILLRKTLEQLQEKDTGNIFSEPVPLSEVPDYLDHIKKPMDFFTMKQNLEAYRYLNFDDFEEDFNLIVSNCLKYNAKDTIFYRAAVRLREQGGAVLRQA
Procedure: as §1, §2, §3, §4

CSNK1D = target: T8, CSNK1D (Homo sapiens, UniProt P48730); assay: Liability panel screening by DSF: CSNK1D; assay type: binding; details: DSF, 20 µM, n=2; read-out: Mean ΔTM CSNK1D
T8 construct: made in house
Procedure: as §1, §2, §3, §4

MAPK1 = target: T9, MAPK1 (Homo sapiens, UniProt P28482); assay: Liability panel screening by DSF: MAPK1; assay type: binding; details: DSF, 20 µM, n=2; read-out: Mean ΔTM MAPK1
T9 construct: made in house
Procedure: as §1, §2, §3, §4

TRIM24 = target: T10, TRIM24 (Homo sapiens, UniProt O15164); assay: Liability panel screening by DSF: TRIM24; assay type: binding; details: DSF, 20 µM, n=2; read-out: Mean ΔTM TRIM24
T10 construct: This panel comprised ten highly ligandable kinases and bromodomains; made in house
T10 sequence (O15164 899-1004 limits assumed): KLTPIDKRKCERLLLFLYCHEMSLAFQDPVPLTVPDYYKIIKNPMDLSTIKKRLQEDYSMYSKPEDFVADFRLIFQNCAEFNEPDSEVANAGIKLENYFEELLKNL
Procedure: as §1, §2, §3, §4

[2] = test system: NF-κB activity in HEK293 NF-κB reporter cells; assay: NF-kB activity assay (GFP reporter, ionomycin/PMA); assay type: cell-based; details: for Mean NFκB response: n=3
Procedure: Fig. 6 Application of the NR3 CG set.
After 24 h, cells were incubated with the test compounds solubilized with 0.1% DMSO in the same medium without puromycin. After 4 h incubation, ionomycin (100 ng/mL) and phorbol-12-myristat-13-acetate (PMA, 10 ng/mL) was added, and the cells were imaged for confluence and GFP expression every 90 min. over 24 h using a Tecan SPARK Cyto (Tecan). The number of GFP expressing cells was normalized to confluence in each sample. Each sample was repeated in three biologically independent experiments.

HEK293T cells [3] = assay: Cytotoxicity: metabolic activity (WST-8 / CCK-8 assay); details: 1 µM; HEK293T, 24 h; WST-8; normalized to 0.1% DMSO; single replicates
HEK293T cells [4] = assay: Cytotoxicity: apoptosis induction (caspase-3/7 DEVD fluorogenic DNA dye); details: 1 µM; HEK293T, 24 h; apoptotic cell count normalized to 0.1% DMSO; single replicates
[5] = test system: ATF6 activity in Hela ATF6 reporter cells; assay: Endoplasmic reticulum stress assay (ATF6 Renilla luciferase reporter, tunicamycin); assay type: cell-based; details: Homo sapiens, HeLa, 1 µM, single replicates n=1 to n=5; read-out: ER stress [rel. ATF6 activity]
Procedure: After 24 h, cells were incubated with the test compounds solubilized with 0.1% DMSO in the same medium without puromycin. After 4 h incubation, tunicamycin (100 ng/mL) was added. After another 18 h incubation, cells were assayed for renilla luminescence using DualGlo reagent (Promega) on a Tecan SPARK Cyto (Tecan). Test samples were normalized to the 0.1% DMSO control. Each sample was repeated in five biologically independent experiments.

HEK293T cells [6] = assay: Cytotoxicity: growth-rate (change in confluence over 24 h); details: 1 µM, normalized to 0.1% DMSO control, single replicates (n=1...)

T4 sequence (P22607 23-806, species assumed): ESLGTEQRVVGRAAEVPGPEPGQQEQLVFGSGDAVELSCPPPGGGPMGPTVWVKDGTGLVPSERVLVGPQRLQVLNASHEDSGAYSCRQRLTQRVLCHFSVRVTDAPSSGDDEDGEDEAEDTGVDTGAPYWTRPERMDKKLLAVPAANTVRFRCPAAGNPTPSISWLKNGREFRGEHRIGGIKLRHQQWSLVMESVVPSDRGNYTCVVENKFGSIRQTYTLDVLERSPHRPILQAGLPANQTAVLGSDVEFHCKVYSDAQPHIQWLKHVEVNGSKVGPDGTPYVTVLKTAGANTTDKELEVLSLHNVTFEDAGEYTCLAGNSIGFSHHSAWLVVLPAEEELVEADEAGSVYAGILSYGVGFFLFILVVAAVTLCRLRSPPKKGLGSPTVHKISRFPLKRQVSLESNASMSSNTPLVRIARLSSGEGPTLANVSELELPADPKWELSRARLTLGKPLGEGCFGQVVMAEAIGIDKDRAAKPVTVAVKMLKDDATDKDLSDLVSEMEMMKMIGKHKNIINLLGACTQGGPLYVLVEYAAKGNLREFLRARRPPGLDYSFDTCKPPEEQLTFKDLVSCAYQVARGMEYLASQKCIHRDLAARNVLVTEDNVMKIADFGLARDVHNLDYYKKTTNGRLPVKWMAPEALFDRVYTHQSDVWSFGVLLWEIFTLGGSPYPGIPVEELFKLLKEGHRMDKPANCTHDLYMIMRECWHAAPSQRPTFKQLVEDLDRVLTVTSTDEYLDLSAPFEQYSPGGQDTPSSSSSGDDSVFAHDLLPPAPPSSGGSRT
T5 sequence (P49841 whole entry, species assumed): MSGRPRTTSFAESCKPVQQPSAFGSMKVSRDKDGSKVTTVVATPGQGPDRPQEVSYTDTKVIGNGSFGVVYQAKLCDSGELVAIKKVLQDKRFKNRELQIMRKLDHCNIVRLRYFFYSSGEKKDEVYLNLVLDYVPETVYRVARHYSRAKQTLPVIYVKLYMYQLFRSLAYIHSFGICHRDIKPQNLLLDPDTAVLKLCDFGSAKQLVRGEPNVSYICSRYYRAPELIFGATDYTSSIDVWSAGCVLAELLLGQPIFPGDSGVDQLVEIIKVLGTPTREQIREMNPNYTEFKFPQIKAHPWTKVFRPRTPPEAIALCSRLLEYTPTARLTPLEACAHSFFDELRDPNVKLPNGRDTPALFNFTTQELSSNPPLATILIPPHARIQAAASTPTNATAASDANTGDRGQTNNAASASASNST
T8 sequence (P48730 whole entry, species assumed): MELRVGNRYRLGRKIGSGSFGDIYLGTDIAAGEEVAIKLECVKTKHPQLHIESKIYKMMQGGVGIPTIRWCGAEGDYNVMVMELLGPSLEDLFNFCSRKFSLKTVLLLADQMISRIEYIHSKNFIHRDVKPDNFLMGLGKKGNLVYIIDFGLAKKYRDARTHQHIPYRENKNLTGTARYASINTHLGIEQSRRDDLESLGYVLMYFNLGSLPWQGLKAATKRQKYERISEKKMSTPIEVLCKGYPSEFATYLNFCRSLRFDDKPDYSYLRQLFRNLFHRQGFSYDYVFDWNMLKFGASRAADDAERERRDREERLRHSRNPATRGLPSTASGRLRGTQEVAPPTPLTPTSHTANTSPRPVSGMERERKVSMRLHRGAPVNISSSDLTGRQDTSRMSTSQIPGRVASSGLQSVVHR
T1 sequence (P00519 whole entry, species assumed): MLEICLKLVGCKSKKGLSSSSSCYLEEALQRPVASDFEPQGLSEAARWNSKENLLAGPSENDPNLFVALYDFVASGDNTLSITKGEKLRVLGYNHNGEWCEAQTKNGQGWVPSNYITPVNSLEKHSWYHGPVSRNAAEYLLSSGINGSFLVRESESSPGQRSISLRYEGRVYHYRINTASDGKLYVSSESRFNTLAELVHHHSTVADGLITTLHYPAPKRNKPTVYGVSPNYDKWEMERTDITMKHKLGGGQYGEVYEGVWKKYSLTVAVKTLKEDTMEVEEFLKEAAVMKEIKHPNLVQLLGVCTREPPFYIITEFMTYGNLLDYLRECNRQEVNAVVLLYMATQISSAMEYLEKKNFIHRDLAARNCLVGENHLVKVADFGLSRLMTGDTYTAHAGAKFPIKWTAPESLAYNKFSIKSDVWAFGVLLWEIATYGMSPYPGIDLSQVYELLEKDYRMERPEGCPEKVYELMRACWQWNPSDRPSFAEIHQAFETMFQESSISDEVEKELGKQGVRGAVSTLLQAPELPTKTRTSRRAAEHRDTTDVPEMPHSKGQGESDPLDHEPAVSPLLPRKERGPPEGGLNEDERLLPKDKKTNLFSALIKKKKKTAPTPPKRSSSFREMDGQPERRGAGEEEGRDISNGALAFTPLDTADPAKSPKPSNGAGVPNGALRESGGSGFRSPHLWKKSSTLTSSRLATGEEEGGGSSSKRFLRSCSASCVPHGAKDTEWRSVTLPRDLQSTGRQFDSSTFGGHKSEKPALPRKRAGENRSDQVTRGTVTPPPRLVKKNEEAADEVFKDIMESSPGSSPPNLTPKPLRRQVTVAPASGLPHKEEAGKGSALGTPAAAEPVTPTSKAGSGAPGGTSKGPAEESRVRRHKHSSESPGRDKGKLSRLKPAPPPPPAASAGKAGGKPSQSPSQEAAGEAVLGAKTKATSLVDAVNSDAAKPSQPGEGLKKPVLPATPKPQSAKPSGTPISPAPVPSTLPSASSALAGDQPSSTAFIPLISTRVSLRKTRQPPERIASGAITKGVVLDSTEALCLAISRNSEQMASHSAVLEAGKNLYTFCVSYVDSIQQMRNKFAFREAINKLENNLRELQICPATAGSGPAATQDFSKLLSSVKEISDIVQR
T9 sequence (P28482 whole entry, species assumed): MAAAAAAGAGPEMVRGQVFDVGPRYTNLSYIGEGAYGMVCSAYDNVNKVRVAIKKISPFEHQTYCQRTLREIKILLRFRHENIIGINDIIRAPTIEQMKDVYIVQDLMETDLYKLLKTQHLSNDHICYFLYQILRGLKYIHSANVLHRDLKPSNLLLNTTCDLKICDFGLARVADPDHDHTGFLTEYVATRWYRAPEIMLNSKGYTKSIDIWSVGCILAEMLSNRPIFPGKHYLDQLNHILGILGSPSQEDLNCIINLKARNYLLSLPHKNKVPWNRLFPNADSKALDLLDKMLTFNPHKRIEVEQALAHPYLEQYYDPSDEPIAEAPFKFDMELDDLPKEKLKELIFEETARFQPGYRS

Structure (SMILES): Cc1c(N2C(=O)C3C(O)CCN3C2=O)ccc(C#N)c1Cl (stereo not drawn) [BMS564929]
- Necrosis induction [NI] (HEK293T cells [1]): 0.79 and 0.76 and 0.66 and 0.82
- ΔTm at 20 µM (ABL1): 0.02 °C
- ΔTm at 20 µM (AURKA): -2.25 °C
- ΔTm at 20 µM (CDK2): 0.04 °C
- ΔTm at 20 µM (FGFR3): -0.04 °C
- ΔTm at 20 µM (GSK3B): -0.71 °C
- ΔTm at 20 µM (BRD4): -2.89 °C
- ΔTm at 20 µM (BRPF1): 0.06 °C
- ΔTm at 20 µM (CSNK1D): -0.38 °C
- ΔTm at 20 µM (MAPK1): 0.12 °C
- ΔTm at 20 µM (TRIM24): 0.44 °C
- Mean NFκB response ([2]; 1 µM, 1,5 h): 2292.65 GFP+-cells/confluence ∙ 1000
- Mean NFκB response ([2]; 1 µM, 4,5 h): 2993.37 GFP+-cells/confluence ∙ 1000
- Mean NFκB response ([2]; 1 µM, 7,5 h): 6319.46 GFP+-cells/confluence ∙ 1000
- Mean NFκB response ([2]; 1 µM, 10,5 h): 12250.00 GFP+-cells/confluence ∙ 1000
- Mean NFκB response ([2]; 1 µM, 13,5 h): 16870.00 GFP+-cells/confluence ∙ 1000
- Mean NFκB response ([2]; 1 µM, 16,6 h): 20913.33 GFP+-cells/confluence ∙ 1000
- Mean NFκB response ([2]; 1 µM, 19,5 h): 23700.00 GFP+-cells/confluence ∙ 1000
- Mean NFκB response ([2]; 1 µM, 22,5 h): 25766.67 GFP+-cells/confluence ∙ 1000
- Mean NFκB response ([2]; 1 µM, 3 h): 2425.99 GFP+-cells/confluence ∙ 1000
- Mean NFκB response ([2]; 1 µM, 6 h): 4160.27 GFP+-cells/confluence ∙ 1000
- Mean NFκB response ([2]; 1 µM, 9 h): 9390.00 GFP+-cells/confluence ∙ 1000
- Mean NFκB response ([2]; 1 µM, 12 h): 14670.00 GFP+-cells/confluence ∙ 1000
- Mean NFκB response ([2]; 1 µM, 15 h): 19226.67 GFP+-cells/confluence ∙ 1000
- Mean NFκB response ([2]; 1 µM, 18 h): 22263.33 GFP+-cells/confluence ∙ 1000
- Mean NFκB response ([2]; 1 µM, 21 h): 24826.67 GFP+-cells/confluence ∙ 1000
- Mean NFκB response ([2]; 1 µM, 24 h): 26713.33 GFP+-cells/confluence ∙ 1000
- Metabolic activity [MA] (HEK293T cells [3]): 1.09 and 1.08 and 0.94 and 1.07 (2×) and 0.99 and 0.92 and 1.10
- Apoptosis induction [AI] (HEK293T cells [4]): 0.43 and 0.64 and 0.69 and 0.74 and 0.68 and 1.04

Structure (SMILES): CNC(=O)c1ccc(N2C(=S)N(c3ccc(C#N)c(C(F)(F)F)c3)C(=O)C2(C)C)cc1F [Enzalutamide]
- Necrosis induction [NI] (HEK293T cells [1]): 0.88 and 0.97 and 0.94 and 0.81
- Mean NFκB response ([2]; 1 µM, 1,5 h): 4053.16 GFP+-cells/confluence ∙ 1000
- Mean NFκB response ([2]; 1 µM, 4,5 h): 4748.63 GFP+-cells/confluence ∙ 1000
- Mean NFκB response ([2]; 1 µM, 7,5 h): 9147.14 GFP+-cells/confluence ∙ 1000
- Mean NFκB response ([2]; 1 µM, 10,5 h): 19308.05 GFP+-cells/confluence ∙ 1000
- Mean NFκB response ([2]; 1 µM, 13,5 h): 27440.00 GFP+-cells/confluence ∙ 1000
- Mean NFκB response ([2]; 1 µM, 16,6 h): 33976.67 GFP+-cells/confluence ∙ 1000
- Mean NFκB response ([2]; 1 µM, 19,5 h): 37833.33 GFP+-cells/confluence ∙ 1000
- Mean NFκB response ([2]; 1 µM, 22,5 h): 41216.67 GFP+-cells/confluence ∙ 1000
- Mean NFκB response ([2]; 1 µM, 3 h): 4315.98 GFP+-cells/confluence ∙ 1000
- Mean NFκB response ([2]; 1 µM, 6 h): 6007.28 GFP+-cells/confluence ∙ 1000
- Mean NFκB response ([2]; 1 µM, 9 h): 14317.85 GFP+-cells/confluence ∙ 1000
- Mean NFκB response ([2]; 1 µM, 12 h): 23650.00 GFP+-cells/confluence ∙ 1000
- Mean NFκB response ([2]; 1 µM, 15 h): 31096.67 GFP+-cells/confluence ∙ 1000
- Mean NFκB response ([2]; 1 µM, 18 h): 36023.33 GFP+-cells/confluence ∙ 1000
- Mean NFκB response ([2]; 1 µM, 21 h): 39446.67 GFP+-cells/confluence ∙ 1000
- Mean NFκB response ([2]; 1 µM, 24 h): 42106.67 GFP+-cells/confluence ∙ 1000
- NF-κB activity (inflammatory response to ionomycin/PMA) ([2]; HEK293 NF-κB reporter cells, compounds at recommended concentrations, imaged over 24 h, n = 3): tended to enhance NF-κB activity
- activity at 1 µM [5]: 99% and 117%
- Metabolic activity [MA] (HEK293T cells [3]): 1.02 and 1.04 and 1.01 (2×) and 0.98 and 1.13
- Growth rate [GR] (HEK293T cells [6]): 0.61 and 1.23 and 0.75 and 1.17 and 0.84 and 0.95 and 1.00 and 2.30 and 3.82 and 0.45
- Apoptosis induction [AI] (HEK293T cells [4]): 0.86 and 1.10 and 1.13 and 0.75 and 1.01 and 0.84

Reference: PMC11790914, “Chemogenomics for steroid hormone receptors (NR3)” (Communications Chemistry, 2025)
